Measured values reported in patent publication US10342782B2, “Positive allosteric modulators of the muscarinic acetylcholine receptor M4” (Vanderbilt University, priority 2016, dated 2019).

Target: T1, Human M4 (Homo sapiens, UniProt P08173)
T1 sequence (P08173 1-479): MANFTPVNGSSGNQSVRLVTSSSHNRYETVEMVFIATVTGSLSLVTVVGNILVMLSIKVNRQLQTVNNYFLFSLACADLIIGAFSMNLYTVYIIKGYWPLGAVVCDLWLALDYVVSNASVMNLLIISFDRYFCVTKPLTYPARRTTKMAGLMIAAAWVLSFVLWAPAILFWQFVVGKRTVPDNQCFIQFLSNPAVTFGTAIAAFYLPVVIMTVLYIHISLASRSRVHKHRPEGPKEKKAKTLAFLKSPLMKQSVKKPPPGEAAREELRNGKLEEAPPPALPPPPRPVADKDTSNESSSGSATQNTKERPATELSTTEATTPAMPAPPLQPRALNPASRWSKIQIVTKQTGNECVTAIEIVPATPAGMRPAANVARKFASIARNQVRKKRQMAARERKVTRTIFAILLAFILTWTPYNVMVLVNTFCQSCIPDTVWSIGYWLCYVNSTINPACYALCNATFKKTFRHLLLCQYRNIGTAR
Assay: cell-based
Settings: for Emax: CHO-K1
Description: Human M4 cDNA, along with the chimeric G protein Gqi5, were transfected into Chinese hamster ovary (CHO-K1) cells purchased from the American Type Culture Collection using Lipofectamine2000. M4/Gqi5/CHO cells were grown in Ham's F-12 medium containing 10% heat-inactivated fetal bovine serum (FBS), 20 mM HEPES, 500 μg/mL G418 sulfate, and 200 μg/mL Hygromycin B.
For high throughput measurement of agonist-evoked increases in intracellular calcium, CHO-K1 cells stably expressing muscarinic receptors were plated in growth medium lacking G418 and hygromycin at 15,000 cells/20 μL/well in Greiner 384-well black-walled, tissue culture (TC)-treated, clear-bottom plates (VWR). Cells were incubated overnight at 37° C. and 5% CO2. […] Test compound CRCs were then transferred to daughter plates (240 nL) using the Echo acoustic plate reformatter (Labcyte, Sunnyvale, Calif.) and then diluted into assay buffer (40 μL) to a 2× stock using a Thermo Fisher Combi (Thermo Fisher Scientific, Waltham, Mass.).
Calcium flux was measured using the Functional Drug Screening System (FDSS) 6000 or 7000 (Hamamatsu Corporation, Tokyo, Japan) as an increase in the fluorescent static ratio. Compounds were applied to cells (20 μL, 2×) using the automated system of the FDSS at 2-4 s into the protocol and the data were collected at 1 Hz. […] Agonist activity was analyzed as a concentration-dependent increase in calcium mobilization upon compound addition. Positive allosteric modulator activity was analyzed as a concentration-dependent increase in the EC20 acetylcholine response. Antagonist activity was analyzed as a concentration-dependent decrease in the EC80 acetylcholine response. Concentration-response curves were generated using a four-parameter logistical equation in XLFit curve fitting software (IDBS, Bridgewater, N.J.) for Excel (Microsoft, Redmond, Wash.) or Prism (GraphPad Software, Inc., San Diego, Calif.).

Cc1nc2cc(C)c3c(N)c(C(=O)N[C@H]4CCN(c5ccc(F)cn5)C4)sc3n2n1 [Compound 12, (S)-6-amino-N-(1-(5-fluoropyridin-2-yl)pyrrolidin-3-yl)-2,5-dimethylthieno[3,2-e][1,2,4]triazolo[1,5-a]pyridine-7-carboxamide]
EC50: 596 nM
Emax: 66%

Cc1nc2cc(C)c3c(N)c(C(=O)N[C@@H]4CCN(c5ccc(F)cn5)C4)sc3n2n1 [Compound 15, (R)-6-amino-N-(1-(5-fluoropyridin-2-yl)pyrrolidin-3-yl)-2,5-dimethylthieno[3,2-e][1,2,4]triazolo[1,5-a]pyridine-7-carboxamide]
EC50: 1200 nM
Emax: 43%

Cc1nc2cc(C)c3c(N)c(C(=O)NCc4ccc(N5CCN(C)CC5)cc4)sc3n2n1 [Compound 8, 6-amino-2,5-dimethyl-N-(4-(4-methylpiperazin-1-yl)benzyl)thieno[3,2-e][1,2,4]triazolo[1,5-a]pyridine-7-carboxamide]
EC50: 217 nM
Emax: 86%

Cc1nc2cc(C)c3c(N)c(C(=O)NC4CN(c5ncc(C6CC6)cc5C)C4)sc3n2n1 [Compound 9, 6-amino-N-(1-(5-cyclopropyl-3-methylpyridin-2-yl)azetidin-3-yl)-2,5-dimethylthieno[3,2-e][1,2,4]triazolo[1,5-a]pyridine-7-carboxamide]
EC50: 863 nM
Emax: 79%
